{"source": "patent US10364256B2", "about": "(GlaxoSmithKline Intellectual Property Development Limited, priority 2015, dated 2019)", "key": {"[1]": {"molecular_target": "T1, full length Keap1 protein / full length NRF2 protein (Homo sapiens, UniProt Q14145)", "T1 construct": "full length NRF2 protein and full length Keap1 protein (Keap1 exists a dimer) are used; His", "T1 sequence (Q14145 whole entry)": "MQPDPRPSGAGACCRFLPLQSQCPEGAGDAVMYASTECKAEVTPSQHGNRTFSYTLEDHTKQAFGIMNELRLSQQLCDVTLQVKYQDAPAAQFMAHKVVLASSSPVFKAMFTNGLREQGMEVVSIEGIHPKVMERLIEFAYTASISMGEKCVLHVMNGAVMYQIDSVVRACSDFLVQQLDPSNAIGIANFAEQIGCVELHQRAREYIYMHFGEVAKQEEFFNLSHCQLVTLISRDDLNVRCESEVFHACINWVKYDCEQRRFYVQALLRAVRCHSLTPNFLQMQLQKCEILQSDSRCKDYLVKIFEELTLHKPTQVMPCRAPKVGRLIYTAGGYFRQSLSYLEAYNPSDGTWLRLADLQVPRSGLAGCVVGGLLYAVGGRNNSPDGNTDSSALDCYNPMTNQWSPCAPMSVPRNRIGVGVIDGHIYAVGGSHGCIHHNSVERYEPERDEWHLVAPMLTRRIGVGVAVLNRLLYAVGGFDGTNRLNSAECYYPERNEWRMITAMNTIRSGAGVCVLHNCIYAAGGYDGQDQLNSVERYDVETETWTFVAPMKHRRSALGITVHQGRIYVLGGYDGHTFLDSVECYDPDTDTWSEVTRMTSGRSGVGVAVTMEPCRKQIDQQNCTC", "assay": "NRF2-Keap1 TR-FRET Low Protein Assay", "type": "binding", "settings": "1.25 nM Keap1 FlagHis and 2.5 nM biotin-NRF2 added", "outline": "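Flag-tagged full-length Keap1 was preincubated with compound (3-fold series) for 2.25 h at 37 °C in Tris pH 8.0/MgCl2/NaCl/BSA/DTT/CHAPS. Biotin-Avi-NRF2 (added at 2.5 nM) was then bound for 1.25 h at 4 °C. Eu-streptavidin/anti-Flag-APC TR-FRET (665/615 nm) was read after 1 h at RT, and pIC50 came from a four-parameter fit.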"}, "[2]": {"test_system": "NQO1 specific enzyme activity in BEAS-2B cells (marker for NRF2 activation)", "assay": "BEAS-2B NQO1 MTT Assay", "type": "cell-based", "settings": "Homo sapiens, compound incubated 48 hours, read-out: EC50 (NQO1 specific enzyme activity induction)", "outline": "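BEAS-2B cells treated with compound for 48 h at 37 °C, then lysed; NQO1 activity in lysates measured kinetically by MTT reduction at A570 over 30 min. pEC50 from 3-parameter fit of ΔOD/min versus log concentration; lysate also taken for Cell Titer Glo.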"}}, "note": "pEC50, pIC50: −log10 of the molar value.", "data": [{"smiles": "CC(Oc1cccc(-c2cccc(-n3ncc(C(=O)O)c3C3CC3c3cn(C)nn3)c2)c1)c1ccccc1", "note": "(stereo not drawn) [Example 235, 5-(2-(1-Methyl-1H-1,2,3-triazol-4-yl)cyclopropyl)-1-(3′-(1-phenylethoxy)-[1,1′-biphenyl]-3-yl)-1H-pyrazole-4-carboxylic Acid]", "values": [{"measurement": "pIC50", "setting": "[1]", "value": "7.00 to 8.00"}, {"measurement": "pEC50", "setting": "[2]", "value": "6.00 to 7.00"}]}, {"smiles": "Cn1cc(C2CC2c2c(C(=O)O)cnn2-c2cccc(-c3cccc(C(=O)C4CCCCC4)c3)c2)nn1", "note": "(stereo not drawn) [Example 243, 1-(3′-(Cyclohexanecarbonyl)-[1,1′-biphenyl]-3-yl)-5-(2-(1-methyl-1H-1,2,3-triazol-4-yl)cyclopropyl)-1H-pyrazole-4-carboxylic Acid]", "values": [{"measurement": "pIC50", "setting": "[1]", "value": "7.00 to 8.00"}, {"measurement": "pEC50", "setting": "[2]", "value": "6.00 to 7.00"}]}, {"smiles": "COC(c1cccc(-c2cccc(-n3ncc(C(=O)O)c3C3CC3c3cn(C)nn3)c2)c1)C1CCCCC1", "note": "(stereo not drawn) [Example 244, 1-(3′-(Cyclohexyl(methoxy)methyl)-[1,1′-biphenyl]-3-yl)-5-(2-(1-methyl-1H-1,2,3-triazol-4-yl)cyclopropyl)-1H-pyrazole-4-carboxylic acid]", "values": [{"measurement": "pIC50", "setting": "[1]", "value": "7.00 to 8.00"}, {"measurement": "pEC50", "setting": "[2]", "value": "6.00 to 7.00"}]}]}
